The results in this text go back to ChEMBL document CHEMBL1141075, “4-Oxo-4,7-dihydrothieno[2,3-b]pyridines as non-nucleoside inhibitors of human cytomegalovirus and related herpesvirus polymerases” (J Med Chem, 2005).

The target of assay [1] is T1, DNA polymerase catalytic subunit (Human cytomegalovirus (strain AD169) (HHV-5) (Human herpesvirus 5), UniProt P08546).
T1 sequence (P08546 whole entry): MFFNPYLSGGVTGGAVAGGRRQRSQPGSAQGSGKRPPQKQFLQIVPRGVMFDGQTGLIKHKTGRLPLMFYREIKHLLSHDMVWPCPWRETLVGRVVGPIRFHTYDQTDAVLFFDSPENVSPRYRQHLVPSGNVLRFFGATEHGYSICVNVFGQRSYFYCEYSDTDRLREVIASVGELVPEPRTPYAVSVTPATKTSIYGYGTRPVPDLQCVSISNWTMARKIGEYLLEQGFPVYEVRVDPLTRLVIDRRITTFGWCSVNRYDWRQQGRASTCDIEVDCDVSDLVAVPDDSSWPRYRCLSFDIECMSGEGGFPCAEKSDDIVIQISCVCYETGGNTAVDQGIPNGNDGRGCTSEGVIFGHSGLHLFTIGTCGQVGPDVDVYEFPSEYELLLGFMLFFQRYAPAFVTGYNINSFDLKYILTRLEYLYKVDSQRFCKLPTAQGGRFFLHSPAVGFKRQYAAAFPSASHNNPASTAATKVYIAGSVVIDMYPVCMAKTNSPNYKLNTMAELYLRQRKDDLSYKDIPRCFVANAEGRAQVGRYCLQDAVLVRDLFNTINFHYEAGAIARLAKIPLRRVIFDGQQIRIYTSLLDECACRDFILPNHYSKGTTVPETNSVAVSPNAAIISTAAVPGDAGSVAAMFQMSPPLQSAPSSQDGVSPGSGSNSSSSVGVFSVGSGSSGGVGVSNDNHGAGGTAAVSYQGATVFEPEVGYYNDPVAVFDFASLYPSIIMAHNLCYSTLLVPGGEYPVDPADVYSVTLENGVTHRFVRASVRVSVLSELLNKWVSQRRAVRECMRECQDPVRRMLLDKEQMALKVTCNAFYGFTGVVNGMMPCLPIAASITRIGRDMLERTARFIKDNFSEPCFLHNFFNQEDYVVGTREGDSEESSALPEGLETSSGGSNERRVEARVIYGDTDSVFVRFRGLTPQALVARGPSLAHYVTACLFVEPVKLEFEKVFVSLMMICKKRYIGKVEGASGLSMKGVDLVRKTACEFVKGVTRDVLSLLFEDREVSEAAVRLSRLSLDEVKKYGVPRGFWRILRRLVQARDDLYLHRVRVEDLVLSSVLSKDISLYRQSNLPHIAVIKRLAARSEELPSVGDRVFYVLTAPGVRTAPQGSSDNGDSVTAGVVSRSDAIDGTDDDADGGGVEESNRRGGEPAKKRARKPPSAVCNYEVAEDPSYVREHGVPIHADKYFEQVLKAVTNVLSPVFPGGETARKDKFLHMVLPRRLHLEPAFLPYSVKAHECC
The experiment in a line: Inhibition of human cytomegalovirus DNA polymerase (95 uL) activity in a solution containing […] HEPES (pH 7.5), incubation for 12 minutes at 26 degrees C. More on the design: species or system Human betaherpesvirus 5.

Assay [2] concerns HFF. The experiment in a line: Antiviral activity against human cytomegalovirus (Davis strain) grown on human foreskin fibroblast cells determined by reduction in plaque formation upon incubation at 37 degrees C with the compound dissolved in DMSO. Type of assay: functional, cell-based.
For assay [3], the target named is T2, DNA polymerase delta catalytic subunit (Homo sapiens, UniProt P28340).
T2 sequence (P28340 whole entry): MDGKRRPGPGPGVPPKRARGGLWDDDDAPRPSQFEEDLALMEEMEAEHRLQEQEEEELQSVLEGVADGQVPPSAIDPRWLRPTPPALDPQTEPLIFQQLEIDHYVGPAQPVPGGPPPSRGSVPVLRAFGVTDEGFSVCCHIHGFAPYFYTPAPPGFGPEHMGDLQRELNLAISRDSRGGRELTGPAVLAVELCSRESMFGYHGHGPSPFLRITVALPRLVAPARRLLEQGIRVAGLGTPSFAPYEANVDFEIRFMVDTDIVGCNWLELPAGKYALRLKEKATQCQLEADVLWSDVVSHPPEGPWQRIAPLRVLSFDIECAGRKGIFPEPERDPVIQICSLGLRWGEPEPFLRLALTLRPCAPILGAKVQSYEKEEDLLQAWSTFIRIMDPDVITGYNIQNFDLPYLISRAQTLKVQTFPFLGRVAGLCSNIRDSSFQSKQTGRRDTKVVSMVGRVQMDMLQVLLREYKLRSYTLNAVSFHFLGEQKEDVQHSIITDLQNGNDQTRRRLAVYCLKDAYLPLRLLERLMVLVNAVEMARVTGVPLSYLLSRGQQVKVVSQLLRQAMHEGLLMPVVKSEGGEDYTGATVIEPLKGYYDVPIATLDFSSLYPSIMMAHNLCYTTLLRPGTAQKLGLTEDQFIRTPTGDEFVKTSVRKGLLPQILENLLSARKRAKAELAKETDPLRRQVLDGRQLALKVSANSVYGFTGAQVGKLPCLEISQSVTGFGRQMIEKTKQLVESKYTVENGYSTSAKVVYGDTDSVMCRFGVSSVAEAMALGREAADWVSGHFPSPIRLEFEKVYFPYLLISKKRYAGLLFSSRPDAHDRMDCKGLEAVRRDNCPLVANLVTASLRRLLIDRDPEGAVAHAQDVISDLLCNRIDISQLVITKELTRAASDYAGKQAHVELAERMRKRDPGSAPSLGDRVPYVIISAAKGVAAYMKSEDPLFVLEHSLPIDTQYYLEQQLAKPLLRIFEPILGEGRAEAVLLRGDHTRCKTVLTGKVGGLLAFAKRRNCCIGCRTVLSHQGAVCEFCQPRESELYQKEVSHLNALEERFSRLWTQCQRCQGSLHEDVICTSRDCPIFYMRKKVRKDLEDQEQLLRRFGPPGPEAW
The experiment in a line: Inhibition of human delta DNA polymerase (95 uL) activity in a solution containg […] HEPES (pH 7.5) upon incubation for 12 minutes at 26 degrees C with the compound dissolved in DMSO.

Assay [4] has as its target T3, DNA polymerase alpha catalytic subunit (Homo sapiens, UniProt P09884).
T3 sequence (P09884 whole entry): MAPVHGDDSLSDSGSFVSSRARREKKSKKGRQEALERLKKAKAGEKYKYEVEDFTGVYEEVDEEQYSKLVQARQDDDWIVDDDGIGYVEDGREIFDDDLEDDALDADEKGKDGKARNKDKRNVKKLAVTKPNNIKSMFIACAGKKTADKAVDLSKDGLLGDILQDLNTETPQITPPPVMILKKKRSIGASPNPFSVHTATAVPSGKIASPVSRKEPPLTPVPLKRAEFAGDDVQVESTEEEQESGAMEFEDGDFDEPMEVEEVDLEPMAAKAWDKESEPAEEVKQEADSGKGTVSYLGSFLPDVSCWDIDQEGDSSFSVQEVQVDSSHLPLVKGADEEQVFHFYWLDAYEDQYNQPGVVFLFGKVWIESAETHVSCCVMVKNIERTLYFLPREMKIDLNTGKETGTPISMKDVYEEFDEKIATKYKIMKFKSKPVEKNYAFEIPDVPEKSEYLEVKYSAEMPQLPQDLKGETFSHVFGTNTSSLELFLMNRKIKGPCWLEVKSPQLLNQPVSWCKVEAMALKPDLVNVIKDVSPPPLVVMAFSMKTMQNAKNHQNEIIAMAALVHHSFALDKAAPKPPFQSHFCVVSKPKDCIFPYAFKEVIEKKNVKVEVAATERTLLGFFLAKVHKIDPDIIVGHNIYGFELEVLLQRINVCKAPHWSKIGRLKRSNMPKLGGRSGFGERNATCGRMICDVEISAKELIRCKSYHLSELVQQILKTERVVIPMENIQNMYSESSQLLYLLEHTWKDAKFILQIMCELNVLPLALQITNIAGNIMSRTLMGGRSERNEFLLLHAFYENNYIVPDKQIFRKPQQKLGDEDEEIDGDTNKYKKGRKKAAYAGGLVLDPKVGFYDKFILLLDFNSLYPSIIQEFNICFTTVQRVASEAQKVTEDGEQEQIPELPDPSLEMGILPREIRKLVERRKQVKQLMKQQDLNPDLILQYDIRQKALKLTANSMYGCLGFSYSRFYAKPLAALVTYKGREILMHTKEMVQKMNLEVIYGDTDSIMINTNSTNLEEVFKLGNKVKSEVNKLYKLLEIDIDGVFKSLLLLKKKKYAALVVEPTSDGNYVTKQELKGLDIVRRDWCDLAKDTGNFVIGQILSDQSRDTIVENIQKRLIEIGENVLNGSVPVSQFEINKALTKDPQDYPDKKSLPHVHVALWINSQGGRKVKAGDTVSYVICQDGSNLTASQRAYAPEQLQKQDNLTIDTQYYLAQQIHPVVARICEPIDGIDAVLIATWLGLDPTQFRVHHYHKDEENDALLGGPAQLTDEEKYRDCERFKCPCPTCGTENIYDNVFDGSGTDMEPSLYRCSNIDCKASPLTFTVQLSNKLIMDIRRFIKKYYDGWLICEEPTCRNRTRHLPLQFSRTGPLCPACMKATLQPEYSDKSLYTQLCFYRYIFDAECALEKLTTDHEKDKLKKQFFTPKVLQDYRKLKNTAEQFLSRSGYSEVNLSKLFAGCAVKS
The experiment in a line: Inhibition of human alpha DNA polymerase (95 uL) activity in a solution containg […] HEPES (pH 7.5) upon incubation for 12 minutes at 26 degrees C with the compound dissolved in DMSO.

Broadly, the IC50 is the concentration that inhibits the measured activity by half. Lower therefore signals higher potency. Molecule `Cn1cc(C(=O)NCc2ccc(Cl)cc2)c(=O)c2cc(CCO)sc21` came in with a half-maximal inhibitory concentration (IC50) in assay [1] of 4 µM. Still for that read-out and setting: then `Cn1cc(C(=O)NCc2ccc(Cl)cc2)c(=O)c2cc(C#CCCO)sc21`, with 9.5 µM; and `Cn1cc(C(=O)NCc2ccc(Cl)cc2)c(=O)c2cc(C#CCCCO)sc21`, with 22 µM. The molecule `O=C(NCc1ccc(Cl)cc1)c1cnc2sc(CCCO)cc2c1O` showed an IC50 in assay [2] of more than 20 µM.

Take `O=C(NCc1ccc(Cl)cc1)c1cn(CCO)c2sc(C#CCO)cc2c1=O`: the IC50 in assay [2] was found to be 2.3 µM; in assay [1], 1.1 µM. The like results for `O=C(NCc1ccc(Cl)cc1)c1cn(CCO)c2sc(CCCO)cc2c1=O` were, in that order, 1.8 µM and 0.75 µM.

For `CCN(CC)CCn1cc(C(=O)NCc2ccc(Cl)cc2)c(=O)c2cc(CCCO)sc21`, half-maximal inhibition in assay [2] (IC50) required 0.9 µM. Still for that read-out and setting: then `CCn1cc(C(=O)NCc2ccc(Cl)cc2)c(=O)c2cc(C#CCO)sc21`, with 1.7 µM; and `CCn1cc(C(=O)NCc2ccc(Cl)cc2)c(=O)c2cc(CCCO)sc21`, with 2.3 µM. The same measure, in the same setting: with `Cn1cc(C(=O)NCc2ccc(Cl)cc2)c(=O)c2cc(C#CCO)sc21` the figure was 1.4 µM. Turning to `O=C(NCc1ccc(Cl)cc1)c1cnc2sc(C#CCO)cc2c1O`, the IC50 in assay [2] was more than 20 µM; in assay [1], 2.7 µM. With `CC(C)n1cc(C(=O)NCc2ccc(Cl)cc2)c(=O)c2cc(CCCO)sc21`, the IC50 in assay [2] came to 1.3 µM. The molecule `Cn1cc(C(=O)NCc2ccc(Cl)cc2)c(=O)c2cc(CCCCO)sc21` returned an IC50 in assay [1] of 0.43 µM. The molecule `CC(C)n1cc(C(=O)NCc2ccc(Cl)cc2)c(=O)c2cc(C#CCO)sc21` came in with a 50% inhibitory concentration (IC50) in assay [2] of 2.7 µM.

Regarding `CCN(CC)CCn1cc(C(=O)NCc2ccc(Cl)cc2)c(=O)c2cc(C#CCO)sc21`, the IC50 in assay [2] was 3.8 µM; in assay [1], 1.8 µM. Take `Cn1cc(C(=O)NCc2ccc(Cl)cc2)c(=O)c2cc(CCCCCO)sc21`: the IC50 in assay [1] turned out to be 9.7 µM.

In assay [3], `C[C@@]1(CO)[C@H](O)CC[C@@]2(C)[C@H]1CC[C@H]1C[C@@H]3C[C@@]12CC[C@]3(O)CO` [APHIDICOLIN] returned an IC50 of more than 40 µM.

Regarding `O=C(O)P(=O)(O)O` [FOSCARNET], the IC50 in assay [3] and in assay [4] was more than 20 µM throughout. For the molecule `Cc1cn([C@H]2C[C@H](N=[N+]=[N-])[C@@H](CO[P@](=O)(O)O[P@](=O)(O)OP(=O)(O)O)O2)c(=O)[nH]c1=O` [ZIDOVUDINE TRIPHOSPHATE], in assay [4], the IC50 was 13.4 µM.
